The values below come from PubChem BioAssay (NCI).

Among the test systems are SK-MEL-5 melanoma; CCRF-CEM leukemia; COLO 205 colon; SW-620 colon; TK-10 renal; CAKI-1 renal; RXF 393 renal; A549 NSCLC; SK-MEL-2 melanoma; MDA-MB-231 breast.
Holding throughout (assay): growth of human tumour cells (NCI), 48 h

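Values below derive from 48-hour exposures of cells grown in 96-well plates, with endpoints linearly interpolated between the two concentrations bracketing the appropriate inhibition level. GI50 is the concentration that inhibits growth by half. TGI denotes the concentration required for complete inhibition of growth.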

As to `NCCCCNCCCNC(=O)c1nc(-c2nc(CCN)sc2Cl)sc1Cl`, the TGI with SK-MEL-5 melanoma, in the experiment on CCRF-CEM leukemia, in the experiment with COLO 205 colon, in the experiment with SW-620 colon, in the experiment on TK-10 renal and with CAKI-1 renal was over 100 µM in each case. Also, the TGI in the experiment with RXF 393 renal is 37.1 µM; with A549 NSCLC, over 100 µM.
Turning to `COC(=O)C1CCc2sc3ncnc(Nc4cn[nH]c4C(=O)Nc4ccc(CN5CCN(C)CC5)cc4)c3c21` (configuration not stated), the GI50 is 0.58 µM in the experiment with SK-MEL-5 melanoma; 0.29 µM in the experiment with CCRF-CEM leukemia; 0.692 µM in the experiment on SK-MEL-2 melanoma; 0.354 µM in the experiment with SW-620 colon; 2.31 µM in the experiment with TK-10 renal; 0.244 µM in the experiment with RXF 393 renal. For the same compound, the TGI was 2.56 µM in the experiment with SK-MEL-5 melanoma; 2.98 µM in the experiment with CCRF-CEM leukemia; 3.48 µM with SK-MEL-2 melanoma; 1.58 µM with SW-620 colon; 17.8 µM in the experiment on TK-10 renal; 0.891 µM in the experiment with RXF 393 renal.
In the case of `CN(C)CCNC(=O)c1cc(Cl)cc2ccc(-c3ccccc3)nc12`, the TGI amounted to 3.82 µM in the experiment with SK-MEL-5 melanoma; 6.01 µM in the experiment with CCRF-CEM leukemia; 4.28 µM in the experiment on COLO 205 colon; 17.1 µM with SK-MEL-2 melanoma; 13.4 µM with SW-620 colon; 8.56 µM in the experiment on CAKI-1 renal. Further, the TGI with RXF 393 renal stood at 14.3 µM; in the experiment on A549 NSCLC it was 12.4 µM.
With `O=S(=O)(O)c1ccc(N=Nc2ccc(N=Nc3ccc(/C=C/c4ccc(N=[N+]([O-])c5ccc(/C=C/c6ccc(N=Nc7ccc(N=Nc8ccc(S(=O)(=O)O)cc8)cc7)cc6S(=O)(=O)O)c(S(=O)(=O)O)c5)cc4S(=O)(=O)O)c(S(=O)(=O)O)c3)cc2)cc1`, the TGI in the experiment on SK-MEL-5 melanoma, with CCRF-CEM leukemia, in the experiment on COLO 205 colon, in the experiment with SK-MEL-2 melanoma, in the experiment with SW-620 colon and in the experiment on RXF 393 renal was over 100 µM each time. In the experiment on A549 NSCLC, the TGI was over 100 µM.
Take `CN(C)CC1CCC/C(=C\c2ccc(OC(=O)c3ccc(Cl)cc3)cc2)C1=O` (configuration not stated): the TGI was 12.1 µM with SK-MEL-5 melanoma; 4.81 µM in the experiment with COLO 205 colon; 10.6 µM in the experiment on SK-MEL-2 melanoma; 2.71 µM in the experiment on SW-620 colon; 5.73 µM in the experiment with MDA-MB-231 breast; 5.19 µM in the experiment on TK-10 renal. Further, the values for the TGI with CAKI-1 renal and in the experiment with A549 NSCLC were 5.13 µM and 7.26 µM, respectively.
On to `Cc1ccc(C(=O)N/N=C(\N=Nc2ccccc2)c2ccc(N(C)C)cc2)cc1`, for which the TGI with SK-MEL-5 melanoma, with CCRF-CEM leukemia, in the experiment on COLO 205 colon, in the experiment on SK-MEL-2 melanoma, in the experiment on SW-620 colon and with MDA-MB-231 breast was over 100 µM in each case. The TGI with TK-10 renal, with CAKI-1 renal and with A549 NSCLC was over 100 µM each time.
On to `COc1ccc(/C=c2\s/c(=C3/SC(=S)N(c4ccccc4)C3=O)n(-c3ccccc3)c2=O)cc1`, for which the TGI with SK-MEL-5 melanoma is over 100 µM; with CCRF-CEM leukemia it was 77.4 µM; in the experiment on COLO 205 colon, over 100 µM; in the experiment on SW-620 colon, over 100 µM; with MDA-MB-231 breast, over 100 µM; in the experiment on TK-10 renal it was 59.2 µM. The TGI in the experiment on CAKI-1 renal and in the experiment on A549 NSCLC was over 100 µM in each case.
For the compound `CCOC(=O)C1(C#N)C(c2ccccc2)CC(O)(c2ccc(Cl)cc2)C(C(=O)c2ccc(Cl)cc2)C1c1ccccc1` (configuration not stated), the TGI in the experiment on SK-MEL-5 melanoma, with CCRF-CEM leukemia, in the experiment on COLO 205 colon, in the experiment on SK-MEL-2 melanoma, in the experiment with SW-620 colon and in the experiment on TK-10 renal was over 100 µM each time. For the same compound, the TGI in the experiment with CAKI-1 renal, in the experiment with RXF 393 renal and in the experiment on A549 NSCLC was over 100 µM each time.
In the case of `CO[C@H]1SC[C@H](OC(C)=O)[C@H](OC(C)=O)[C@H]1OC(C)=O`, the TGI in the experiment with SK-MEL-5 melanoma, in the experiment with CCRF-CEM leukemia, in the experiment on COLO 205 colon, with SK-MEL-2 melanoma, in the experiment on SW-620 colon and in the experiment on MDA-MB-231 breast was over 100 µM each time. The TGI with TK-10 renal, in the experiment on CAKI-1 renal and in the experiment with A549 NSCLC was over 100 µM each time.
Turning to `CCCCSc1nsc(N(C(=O)c2ccccc2)C(=O)c2ccccc2)n1`, the TGI with SK-MEL-5 melanoma was 36.6 µM; with CCRF-CEM leukemia it was over 100 µM; in the experiment with COLO 205 colon it was 41.5 µM; in the experiment with SK-MEL-2 melanoma it was 71.1 µM; with SW-620 colon, over 100 µM; in the experiment with TK-10 renal it was over 100 µM. Further, the TGI in the experiment on CAKI-1 renal, with RXF 393 renal and in the experiment on A549 NSCLC was over 100 µM throughout.
As for `CC(C)(C)OC(=O)NC(Cc1ccccc1)NC(=O)NC(=O)OCc1ccccc1` (configuration not stated), the TGI in the experiment with SK-MEL-5 melanoma was over 100 µM; in the experiment with SK-MEL-2 melanoma, over 100 µM; in the experiment on SW-620 colon it was over 100 µM; in the experiment with TK-10 renal it was over 100 µM; in the experiment on CAKI-1 renal it was 64.1 µM; with RXF 393 renal it was 69.2 µM. This compound also returned a TGI in the experiment on A549 NSCLC of over 100 µM.
On to `Cc1ccc2c(c1)-c1c(C#N)c(N)nc(-c3ccc(Cl)cc3)c1CCS2(=O)=O`, for which the TGI with SK-MEL-5 melanoma was over 68 µM; with CCRF-CEM leukemia, over 23.7 µM; in the experiment with COLO 205 colon, 31.3 µM; in the experiment with SK-MEL-2 melanoma it was over 100 µM; with SW-620 colon, over 100 µM; with MDA-MB-231 breast, over 100 µM. Besides, the TGI in the experiment with TK-10 renal, in the experiment on CAKI-1 renal and in the experiment on A549 NSCLC was over 100 µM each time.
With `Cc1cc(C)nc(NS(=O)(=O)c2ccc(Nc3c4ccccc4nc4c(C(=O)N5CCN(CCOS(C)(=O)=O)CC5)cccc34)cc2)n1`, the TGI with SK-MEL-5 melanoma, with CCRF-CEM leukemia, in the experiment with COLO 205 colon, in the experiment with SK-MEL-2 melanoma, in the experiment with TK-10 renal and with CAKI-1 renal was over 100 µM each time. Moreover, the TGI with RXF 393 renal and with A549 NSCLC was over 100 µM in each case.
As to `CCCCOc1ccc(OCCCCCCCCCC[N+](C)(C)C)cc1`, the TGI with SK-MEL-5 melanoma turned out to be 3.81 µM; in the experiment on CCRF-CEM leukemia, 3.87 µM; with COLO 205 colon it was 2.68 µM; in the experiment with SK-MEL-2 melanoma it was 5 µM; in the experiment with SW-620 colon, 14.9 µM; in the experiment on CAKI-1 renal it was 16.6 µM. Further, the TGI with RXF 393 renal was found to be 3.34 µM; in the experiment on A549 NSCLC, 15.2 µM.
For `COc1ccccc1CN=C1Nc2ccncc2S(=O)(=O)N1c1ccccc1`, the TGI in the experiment on SK-MEL-5 melanoma, with CCRF-CEM leukemia, in the experiment on COLO 205 colon, in the experiment with SW-620 colon, in the experiment on TK-10 renal and with CAKI-1 renal was over 100 µM each time. Also, the TGI with RXF 393 renal and with A549 NSCLC was over 100 µM in each case.
